The values that follow come from article PMC4336642 (Journal of neuroimmune pharmacology : the official journal …, 2015).

SMILES strings stand for the structures. Converted amounts (≈) assume the structure as drawn.

In one data set the test system is bEnd.3 cells. The data set is described as follows: MTT cytotoxicity assay, BBB model. Format: cell-based, murine. The settings on record: Mus musculus, BEND3, 24 h, read-out: IC50, BBB.
A further data set relates to BV-2 cells. The data set is described as follows: MTT cytotoxicity assay, microglia model. Format: cell-based, murine. The settings on record: Mus musculus, BV-2, 24 h, read-out: IC50, Microglia.
The next data set has as its system A172 cells. The data set is described as follows: MTT cytotoxicity assay, astrocytes model. Format: cell-based. As to conditions: Homo sapiens, A 172, 24 h, read-out: IC50, Astrocytes.
The next data set concerns SH-SY5Y cells. Kind of data set: MTT cytotoxicity assay, neurons model. In kind it is cell-based. The settings on record: Homo sapiens, 24 h, read-out: IC50, Neurons.

For `Cc1cn([C@H]2C[C@H](N=[N+]=[N-])[C@@H](CO)O2)c(=O)[nH]c1=O` [Z, 3’-azido-3’-deoxythymidine], the IC50 in the data set with bEnd.3 cells was over 1000 µg/mL; in the data set with BV-2 cells, 800 µg/mL (≈ 2.99 mM); in the data set with A172 cells, over 1000 µg/mL; with SH-SY5Y cells it was over 1000 µg/mL. The “reduction in the mtDNA/nuDNA ratio / mitochondrial toxicity” value with HepG2 cells was “two-fold reduction”.
